Assay [1] relates to recombinant full-length α-syn. In words: De novo ThT aggregation screening assay (50 µM α-syn). The format is biochemical. As to the method: The Thioflavin T (ThT) assay is commonly used for the visualization of α-syn fibrilization, since the dye ThT is able to bind to the amyloidogenic cross-β-sheet proportions of fibril structures. Recombinant α-syn was thawed on ice and centrifuged for 30 min at 21,000 × g and 4 °C. The concentration of the supernatant was determined as described previously. Lyophilized D-peptides were thawed at RT for 1 h and dissolved in 500 µl PBS pH 7.4. After centrifugation for 30 min at 21,000 × g the supernatant concentration was determined by UV–vis using the corresponding extinction coefficient at A280. All ThT assay experiments were performed at 37 °C with 15 µM ThT and 0.05% sodium azide (w/v) in PBS pH 7.4 if not otherwise stated. ThT fluorescence was monitored with bottom optics at λex = 448 nm and λem = 482 nm in a fluorescence plate reader with orbital averaging on 3 mm (Clariostar or Polarstar Optima, BMG labtech, GE). […]
ThT assay was used for different purposes. […] Lag-time and t½ were calculated as described previously. […]
Monomeric α-syn (Supplementary Fig. 3) was incubated with or without a 3-fold molar excess of the D-peptides. […] The ThT positive aggregation was fitted with a symmetric Boltzmann fit and t ½- and lag-time were calculated accordingly. […] ThT fluorescence progression was measured in a 96-well non-binding half-area with a FLUOStar plate reader at λex = 448 nm and λem = 482 nm. […]

In another assay the test system is α-syn monomer. In words: CD secondary structure analysis of de novo aggregation. The format is biochemical. To be noted: 10 µM α-syn + 20 µM SVD-1a (two-fold molar excess), 7 days. Here is the method: Fig. 7 De novo aggregation analysis of α-syn in the presence and absence of SVD-1a. A De novo ThT assay of 10 µM α-syn with and without 20 µM SVD-1a. ThT fluorescence progression was measured in a 96-well non-binding half-area plate (Corning, USA) with a FLUOStar plate reader (BMG labtech, GE) at λex = 448 nm and λem = 482 nm with 300 rpm continuous orbital shaking between reads. For induction of aggregation, one borosilicate bead per well was added (d = 3 mm, Hilgenberg, GE). Data are shown as mean values with ±SD (n = 5). B CD secondary structure analysis of de novo aggregation samples. Samples were incubated as described in (A) without added ThT (n = 3) and subsequently pooled for CD analysis. Far-UV ellipticity of the samples was measured in a quartz cuvette (l = 10 mm) in a J-1100 CD-spectrometer (Jasco, GE). In addition to (A), a sample with 20 µM SVD-1a alone was incubated under identical conditions and later used as a reference for the sample with α-syn and SVD-1a. For this sample (α-syn + SVD-1a (after incubation)), the SVD-1a reference subtracted CD spectrum is shown. […] D α-Syn in the flow through (MWCO < 100 kDa) was quantified using an α-syn specific ELISA (BioLegend, Human α-Synuclein (Colorimetric), 448607, n = 3). E Retentate and flow-through samples were analyzed using SDS–PAGE with silver staining. […]

Entries after “also recorded” stand apart in the source; their conditions may differ. Square brackets hold non-standard residues; d marks the D form. Peptide text beside a SMILES is read from it.

For the molecule `CC[C@@H](C)[C@@H](NC(=O)[C@@H](Cc1c[nH]cn1)NC(=O)[C@@H](CCC(=O)O)NC(=O)[C@@H](CCC(N)=O)NC(=O)[C@@H](Cc1c[nH]c2ccccc12)NC(=O)[C@@H](Cc1ccc(O)cc1)NC(=O)[C@H](NC(=O)[C@@H](CCC(=O)O)NC(=O)[C@@H](Cc1c[nH]cn1)NC(=O)[C@H](NC(=O)[C@H]1CCCN1C(=O)[C@@H](CCSC)NC(=O)[C@H](N)CCCCN)[C@H](C)O)[C@H](C)O)C(=O)N[C@H](Cc1c[nH]c2ccccc12)C(=O)N[C@H](Cc1c[nH]cn1)C(=O)N[C@H](C)C(N)=O` [SVD-1] (H-[dK][dM][dP][dT][dH][dE][dT][dY][dW][dQ][dE][dH][dI][dW][dH][dA]-NH2), the “effect on α-syn aggregation, concentration dependency” value in assay [1] (50 µM α-syn with 50, 150 or 250 µM D-peptide, PBS pH 7.4, n = 5) is “most efficient”. Moreover, in assay [1] (50 µM α-syn, 3-fold molar excess peptide, PBS pH 7.4, 37 °C, shaking 300 rpm 30 s per cycle, n = 3), the “effect on α-syn aggregation (t½ and lag-time)” value was “delayed α-syn aggregation”.

For `CC[C@@H](C)[C@@H](NC(=O)[C@@H](Cc1c[nH]cn1)NC(=O)[C@@H](CCC(=O)O)NC(=O)[C@@H](CCC(N)=O)NC(=O)[C@@H](Cc1c[nH]c2ccccc12)NC(=O)[C@@H](Cc1ccc(O)cc1)NC(=O)[C@H](NC(=O)[C@@H](CCC(=O)O)NC(=O)[C@@H](Cc1c[nH]cn1)NC(=O)[C@H](NC(=O)[C@H]1CCCN1C(=O)[C@@H](CC(C)C)NC(=O)[C@H](N)CCCNC(=N)N)[C@H](C)O)[C@H](C)O)C(=O)N[C@H](Cc1c[nH]c2ccccc12)C(=O)N[C@H](Cc1c[nH]cn1)C(=O)N[C@H](C)C(=O)N[C@H](CCCNC(=N)N)C(=O)N[C@H](CCCNC(=N)N)C(=O)N[C@H](CCCNC(=N)N)C(=O)N[C@H](CCCNC(=N)N)C(=O)N[C@H](CCCNC(=N)N)C(N)=O` [SVD-1a] (H-[dR][dL][dP][dT][dH][dE][dT][dY][dW][dQ][dE][dH][dI][dW][dH][dA][dR][dR][dR][dR][dR]-NH2), the “α-syn secondary structure after de novo aggregation (CD)” value in the assay with α-syn monomer is “no spectrum shift towards a beta-sheet spectrum was observed; also recorded: fully stabilizes monomeric α-syn in its random coil secondary structure after 7 days of incubation”.

Values taken from publication PMC12454639, “Direct disassembly of α-syn preformed fibrils into α-syn monomers by an all-D-peptide” (NPJ Parkinson's Disease, 2025).
